“And” between values parts separate entries of the source, which are not always exact repeats. Identical values can stand only once. Numbers after ± are expanded uncertainties.

For data set [1] the following is noted: Liquid, Closed cell (Static) method.
A short description of data set [2]: refractive index (Na D-line) (dimensionless). The settings on record: 293.15 K; 101.33 kPa; Liquid; Standard Abbe refractometry.

Consider `O=CN1CCOCC1` [N-formylmorpholine], for which the “vapor or sublimation pressure” value is 0.16 ± 0.21 kPa and 0.15 ± 0.21 kPa in data set [1] (343.15 K); 0.49 ± 0.21 kPa in data set [1] (363.15 K); 2.18 ± 0.21 kPa in data set [1] (393.15 K). Further, the refractive index in data set [2] is 1.4844 ± 0.0007.
`CCCCCCC` [heptane]: the “vapor or sublimation pressure” value in data set [1] (343.15 K) turned out to be 40.4 ± 0.31 kPa; in data set [1] (363.15 K), 78.59 ± 0.43 kPa; in data set [1] (393.15 K), 183.7 ± 2.2 kPa. For the same compound, the refractive index in data set [2] is on record as 1.3877 ± 0.0007.
In the same order, the values of `CCCCCC` [hexane] are 105.47 ± 2.2 kPa, 190.95 ± 2.3 kPa, 400.27 ± 2.5 kPa and 1.3748 ± 0.0007.

The vapor or sublimation pressure is the pressure of vapour in equilibrium with the condensed phase. By refractive index is commonly meant the speed of light in vacuum divided by its phase velocity in the sample.

These data come from the NIST ThermoML archive (doi:10.1021/je4004417).
